# Reference: paper PMC10331789 (Journal of natural products, 2023)
# Molecular target: Na+/K+-ATPase (NKA)
# Assay: luminescent ADP detection assay
# Type: biochemical, Sus scrofa
compound,measurement,value
"CO[C@H]1C[C@H](O[C@H]2CC[C@@]3(C)[C@@H](C2)C[C@@H]2O[C@]24[C@@H]3[C@H](O)C(=O)[C@]2(C)[C@@H](C3=CC(=O)OC3)CC[C@]42O)O[C@@H](C)[C@@H]1O [compound 1, (–)-cryptanoside A]",IC50,1200 nM
